Results as given in US12458630B2, “Combination therapy for cancer” (The Regents of the University of California, priority 2020, dated 2025).
Entries after “also recorded” stand apart in the source; their conditions may differ.

Tests used:
[1] = test system: 1444 primary human PDAC cells; assay: TMR-DEX macropinosome uptake assay; format: cell-based; settings: IKKα^Δ 1444 cells, 75 μM EIPA
Method: (§1) Cell imaging. Immunostaining was performed as described^44. Cells were cultured on coverslips and fixed in 4% PFA for 10 min at room temperature. After washing twice in PBS, cells were incubated in PBS containing 10% FBS to block nonspecific sites of antibody adsorption. The cells were then incubated with the appropriate primary antibodies (diluted 1:100) and secondary antibodies (diluted 1:500) in PBS containing 10% FBS with or without 0.1% saponin. For cell macropinosome visualization, 24 hrs after seeding, the cells were serum starved for 18 hrs. Macropinosomes were marked using a high-molecular-mass (70 KD) TMR-Dextran (Invitrogen)-uptake assay, wherein TMR-DEX was added to serum-free medium at a final concentration of 1 mg/ml for 30 min at 37° C. At the end of the incubation period, the cells were rinsed five times in cold PBS and immediately fixed in 4% PFA. For tissue macropinosome visualization^45, fresh pancreata were cut into pieces with an approximate 5-mm cuboidal shape. […]
(§2) Quantification and statistics. To quantify the number of LC3 puncta, a total of 30 cells were recorded and analyzed using the LAS X measurement program on the TCS SPE Leica. Macropinosomes were quantified by using the ‘Analyze Particles’ feature in ImageJ (National Institutes of Health). […]

KC6141 cells = assay: TMR-DEX macropinosome uptake assay; format: cell-based, mouse; settings: WT and IKKα-KD KC6141 cells
Method: as §1, §2

MIA PaCa-2 cells = assay: LC3 puncta / LC3-LAMP1 immunofluorescence; format: cell-based, human; settings: MIA PaCa-2 cells +/- MRT68921
Method: as §1, §2

| Compound | macropinocytosis (TMR-DEX labeling) [1] | MP (macropinosomes) (KC6141 cells) | autophagosome (LC3) puncta per cell (MIA PaCa-2 cells) |
| --- | --- | --- | --- |
| CCN(c1nc(N)c(C(=O)N=C(N)N)nc1Cl)C(C)C [EIPA, 5-(N-ethyl-N-isopropyl) amiloride] | inhibited; also recorded: suppressed | inhibited MP |  |
| CN1CCc2cc(Nc3ncc(C4CC4)c(NCCCNC(=O)C4CCC4)n3)ccc2C1 [MRT68921] |  |  | less autophagosomes; also recorded: reduced autophagosomes; also recorded: significantly abolished |
